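Grown in 96-well plates, cells were treated for 48 hours with each compound at five concentrations. Insufficient inhibition: endpoint recorded as highest concentration tested. GI50 is the concentration that inhibits growth by half. TGI denotes the concentration required for complete inhibition of growth.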
Legend:
Assay in all cases: NCI anticancer screen, dose series, 48 h
DMS 273 small cell lung = system: DMS 273 small cell lung
DMS 114 small cell lung = system: DMS 114 small cell lung
KM20L2 colon = system: KM20L2 colon
SNB-78 CNS = system: SNB-78 CNS
DLD-1 colon = system: DLD-1 colon
HOP-62 NSCLC = system: HOP-62 NSCLC
M19-MEL melanoma = system: M19-MEL melanoma
HOP-18 NSCLC = system: HOP-18 NSCLC
MDA-MB-435 = system: MDA-MB-435
BT-549 breast = system: BT-549 breast
T-47D breast = system: T-47D breast
DU-145 prostate = system: DU-145 prostate
NCI/ADR-RES ovarian = system: NCI/ADR-RES ovarian

Compound	TGI (DMS 273 small cell lung)	TGI (DMS 114 small cell lung)	TGI (KM20L2 colon)	TGI (SNB-78 CNS)	TGI (DLD-1 colon)	TGI (HOP-62 NSCLC)	TGI (M19-MEL melanoma)	TGI (HOP-18 NSCLC)	TGI (MDA-MB-435)	TGI (BT-549 breast)	TGI (T-47D breast)	TGI (DU-145 prostate)	TGI (NCI/ADR-RES ovarian)	GI50 (MDA-MB-435)	GI50 (BT-549 breast)	GI50 (T-47D breast)	GI50 (HOP-62 NSCLC)	GI50 (DU-145 prostate)	GI50 (NCI/ADR-RES ovarian)
CN(/N=C/c1cccc2cccnc12)c1ccccc1	> 100 µM	> 100 µM	> 100 µM	> 100 µM	> 100 µM	> 100 µM	> 100 µM	> 100 µM											
C[C@]12CCC3[C@@H](CC[C@@H]4c5nonc5CC[C@]34C)C1C/C(=N/O)C2=O (some centres undefined)	> 100 µM	> 100 µM	> 100 µM	> 100 µM		> 100 µM	> 100 µM	> 100 µM											
COC(=O)CCC(NC(=S)N/N=C/c1ccco1)C(=O)OC (centres undefined)	> 100 µM	> 100 µM	> 100 µM	> 100 µM	> 100 µM	> 100 µM	> 100 µM	> 100 µM											
O=S1(=O)OCCOS(=O)(=O)C1Cc1ccccc1	> 100 µM	> 100 µM	> 100 µM	> 100 µM	> 100 µM	> 100 µM	> 100 µM	50 µM											
CCc1cccc(C)c1NC(=O)C(=O)Cc1nc2ccccc2s1	> 100 µM	> 100 µM	> 100 µM	> 100 µM	> 100 µM		> 100 µM	> 100 µM											
COc1ccc(OC)c(NC(=O)CCC/C(CC(=O)c2ccc(O)c(OC)c2)=N\Nc2ccc([N+](=O)[O-])cc2)c1	> 100 µM	> 100 µM	> 100 µM	> 100 µM	> 100 µM	> 100 µM	> 100 µM	> 100 µM											
COc1ccc(C(=O)C(c2ccc(OC)cc2)C2(O)C(=O)Nc3c2ccc(Cl)c3C)cc1 (centres undefined)		> 100 µM	> 100 µM	> 100 µM		> 100 µM	> 100 µM	> 100 µM											
C1=C2/CC[C@H](Sc3ccccc3)[C@H]2C2(CCCCC/1)OCCO2	> 100 µM		45.3 µM	> 100 µM	> 100 µM	> 100 µM	67 µM	> 100 µM											
C/C(CC(=O)Nc1ccc(Cl)cc1)=N\NC(N)=S	> 100 µM	> 100 µM	> 100 µM	> 100 µM	> 100 µM	> 100 µM	> 100 µM												
Cc1ccc(N2C(=O)C3C=CC(n4[nH]c(=O)n(Cc5ccccc5)c4=O)CC3C2=O)cc1 (centres undefined)	> 100 µM	> 100 µM	> 100 µM	> 100 µM	> 100 µM	> 100 µM	> 100 µM	> 100 µM											
CCOC(=O)NC(=O)c1cn(CCCCCCOC(=O)NCCCCCCNC(=O)OCCCCCCn2cc(C(=O)NC(=O)OCC)c(=O)[nH]c2=O)c(=O)[nH]c1=O	> 100 µM	> 100 µM	> 100 µM		> 100 µM	> 100 µM	> 100 µM	> 100 µM											
Cc1cccc(C(C)C)c1NC(=O)CC1C(=O)Nc2ccccc2S1(=O)=O (centres undefined)	20.5 µM	45.5 µM	51.5 µM	> 79.3 µM	> 45.6 µM	> 100 µM	> 57.4 µM	70.8 µM											
CC(C)c1cccc2sc(NC(=O)C(=O)C(C#N)c3cccc4ccccc34)nc12 (centres undefined)	> 100 µM	> 100 µM	> 100 µM	> 100 µM	> 100 µM	> 100 µM	> 100 µM	> 100 µM											
COc1ccc(/C=N/N=C(\N)NO)c(OC)c1		> 100 µM		> 100 µM	> 100 µM	84.3 µM	> 100 µM	> 100 µM											
O=C(c1ccccc1)c1cccc(C(=O)c2ccccc2)c1	> 100 µM	> 100 µM		> 100 µM	> 100 µM	> 100 µM	> 100 µM	> 100 µM											
CCOC(=O)NC(=O)c1cn(CCN2CCN(c3ncnc4nc[nH]c34)CC2)c(=O)[nH]c1=O		> 100 µM	> 100 µM		> 100 µM	> 100 µM	> 100 µM	> 100 µM											
COc1ccc(C2=NN(c3ccccc3)C[N+](c3ccc(OC)cc3)=N2)cc1	66.1 µM	64 µM	> 100 µM	80.5 µM	> 100 µM	> 100 µM	> 100 µM												
Cc1ccc(Nc2nc(C)c(C(/C=C/c3ccc(/C=C/C(=N/NC(=O)C[n+]4ccccc4)c4sc(Nc5ccc(C)cc5[N+](=O)[O-])nc4C)cc3)=N\NC(=O)C[n+]3ccccc3)s2)c([N+](=O)[O-])c1	> 100 µM	> 100 µM	> 100 µM	> 100 µM	> 100 µM	> 100 µM	> 100 µM	68 µM											
Cc1cc(Cl)ccc1NC(=O)CC/C(CC(=O)C(C)C)=N\NC(=O)C[n+]1ccccc1	> 100 µM	> 100 µM	> 100 µM	> 100 µM		> 100 µM		> 100 µM											
C=C1c2[nH]c3c([N+](=O)[O-])c(OC)ccc3c2CCN1C(C)=O	> 100 µM	> 100 µM	> 100 µM	> 100 µM	38.4 µM	> 100 µM													
C=C(CO[Si](C)(C)C(C)(C)C)C(C)=O						> 100 µM			36.3 µM	44 µM	56.1 µM	> 100 µM	99.6 µM						
O=C(Nc1ccc(Cl)cc1)Nc1ccc(Nc2nncc3ccccc23)cc1						14.9 µM			9.42 µM	9.28 µM	5.35 µM	26.9 µM	26.3 µM	2.14 µM	2.15 µM	1.03 µM	3 µM	3.17 µM	2.79 µM
CN(C(=O)c1ccco1)C(=S)N1CCN(c2ccccc2)CC1	> 100 µM	> 100 µM	> 100 µM		> 100 µM	> 100 µM	> 100 µM	> 100 µM											
COC(=O)C1=CC2C(=O)OC1CC2C#N (centres undefined)	> 100 µM	> 100 µM	> 100 µM	> 100 µM	> 100 µM	> 100 µM		> 100 µM											
CC#CC(=O)SCCNC(=O)CC						> 10 µM			> 10 µM	> 10 µM	> 10 µM	> 10 µM	> 10 µM						
[N-]=[N+]=NC(CI)c1cn([C@H]2C[C@H](O)[C@@H](CO)O2)c(=O)[nH]c1=O (some centres undefined)	> 100 µM	> 100 µM	> 100 µM	> 100 µM	> 100 µM	> 100 µM	> 100 µM	> 100 µM											
